{
  "source": "patent US20240408086A1",
  "about": "“USE OF LUVADAXISTAT FOR THE TREATMENT OF COGNITIVE IMPAIRMENT” (TAKEDA PHARMACEUTICAL COMPANY LIMITED, priority 2021, published 2024)",
  "test_system": "rat hippocampus",
  "assay": "D-serine on short-term potentiation and long-term depression in rat hippocampal slices",
  "design": "species or system Sprague Dawley rats",
  "conditions": "1 mM D-serine vs controls",
  "procedure": "To obtain rat hippocampal slices, 4-week-old Sprague Dawley rats (provided by Elevage Janvier, Le Genest-Saint-Isle, France) were euthanized by fast decapitation without anesthesia. The brain was quickly removed and soaked in ice-cold oxygenated buffer: 2 mM KCl, 1.2 mM NaH2PO4, 7 mM MgCl2, 0.5 mM CaCl2), 26 mM NaHCO3, 11 mM glucose, and 250 mM sucrose. Hippocampal slices were prepared at 400 μm thickness with a McILWAIN tissue chopper. […] Slices were continuously perfused with oxygenated aCSF during experiments. The animals were housed and used in accordance with French and European legislation.\nElectrophysiological recordings were obtained from a single hippocampal slice placed on the chamber and perfused with aCSF at a constant rate. Extracellular field excitatory postsynaptic potentials (fEPSPs) were recorded in the CA1 stratum radiatum using a glass micropipette filled with aCSF. fEPSPs were evoked by electrical stimulation of Schaffer collaterals/commissural pathway at 0.1 Hz with a glass stimulating electrode placed in the stratum radiatum.\nAcute high doses (1 mM) of D-serine induced hippocampal synaptic plasticity (short-term potentiation and long-term depression) compared with controls in the rat hippocampus (FIGS. 1A-1C). Data in FIGS. 1A and 1B were normalized to the 10-minute control period.",
  "data": [
    {"smiles": "N[C@H](CO)C(=O)O", "note": "[D-serine]", "values": [
      {"measurement": "Depression of EPSP amplitudes (long-term depression)", "setting": "p=0.0374, unpaired t-test", "result": "significantly decreased the depression of EPSP amplitudes"},
      {"measurement": "Potentiation of excitatory postsynaptic potential (EPSP) amplitudes (short-term potentiation)", "setting": "p=0.0603, unpaired t-test", "result": "increased the potentiation of excitatory postsynaptic potential (EPSP) amplitudes, although this change was not statistically significant"}
    ]}
  ]
}
